From patent EP0726263A2, “Herbicidal (1,3,4)oxadiazoles and thiadiazoles” (American Cyanamid Company, priority 1995, dated 1996)

Assays:
Assay type in all cases: in vivo
Triticum aestivum [1] = assay: Herbicidal activity, postemergence test; settings: post; sprayed onto seedling plants, 800 g of active material per hectare; evaluated 2 weeks after treatment
Description: (§1) To evaluate their herbicidal activity, compounds according to the invention are tested using a representative range of plants: TRZAW Triticum aestivum HORVW Hordeum vulgare ZEAMX Zea mays GOSHI Gossypium hirsutum HELAN Helianthus annuus GLYMA Glycine max ALOMY Alopecurus myosuroides SETVI Setaria viridis ECHCG Echinochloa crus-galli GALAP Galium aparine STEME Stellaria media VERPE Veronica persica VIOAR Viola arvensis IPOHE Ipomoea hederacea LAMPU Lamium purpureum PAPRH Papaver rhoeas MATIN Matricaria inodora AMARE Amaranthus retroflexus ABUTH Abutilon theophrasti AMBEL Ambrosia artemisifolia CHEAL Chenopodium album
(§2) The tests fall into two categories, preemergence and postemergence. The preemergence tests involve spraying a liquid formulation of the compound onto the soil in which the seeds have recently been sown. The postemergence tests involve spraying a liquid formulation of the compound onto seedling plants.
(§3) The soil used in the tests is a prepared horticultural loam.
(§4) The formulations used in the tests are prepared from solutions of the test compounds in acetone containing 0.4% by weight of an alkylphenol/ethylene oxide condensate available under the trade mark TRITON X-155. These acetone solutions are diluted with water and the resulting formulations applied at dosage levels corresponding to 800 g of active material per hectare in a volume equivalent to 900 litres per hectare.
(§5) In the preemergence tests untreated sown soil and in the postemergence tests untreated soil bearing seedling plants are used as controls.
(§6) Results of herbicide evaluation are expressed on a rating scale (0-9). The scale is based upon a visual observation of plant stand, vigor, malformation, size, chlorosis, and general plant appearance as compared to a control. Preemergence and postemergence treatments are evaluated at 3 and 2 weeks after treatment, respectively.

Abutilon theophrasti [2] = assay: Herbicidal activity, postemergence test; settings: post; sprayed onto seedling plants, 800 g of active material per hectare; evaluated 2 weeks after treatment
Description: as §1, §2, §3, §4, §5, §6

Glycine max [3] = assay: Herbicidal activity, postemergence test; settings: post; sprayed onto seedling plants, 800 g of active material per hectare; evaluated 2 weeks after treatment
Description: as §1, §2, §3, §4, §5, §6

Alopecurus myosuroides [4] = assay: Herbicidal activity, postemergence test; settings: post; sprayed onto seedling plants, 800 g of active material per hectare; evaluated 2 weeks after treatment
Description: as §1, §2, §3, §4, §5, §6

Setaria viridis [5] = assay: Herbicidal activity, postemergence test; settings: post; sprayed onto seedling plants, 800 g of active material per hectare; evaluated 2 weeks after treatment
Description: as §1, §2, §3, §4, §5, §6

Ambrosia artemisifolia [6] = assay: Herbicidal activity, postemergence test; settings: post; sprayed onto seedling plants, 800 g of active material per hectare; evaluated 2 weeks after treatment
Description: as §1, §2, §3, §4, §5, §6

Veronica persica [7] = assay: Herbicidal activity, postemergence test; settings: post; sprayed onto seedling plants, 800 g of active material per hectare; evaluated 2 weeks after treatment
Description: as §1, §2, §3, §4, §5, §6

Hordeum vulgare [8] = assay: Herbicidal activity, postemergence test; settings: post; sprayed onto seedling plants, 800 g of active material per hectare; evaluated 2 weeks after treatment
Description: as §1, §2, §3, §4, §5, §6

Ipomoea hederacea [9] = assay: Herbicidal activity, postemergence test; settings: post; sprayed onto seedling plants, 800 g of active material per hectare; evaluated 2 weeks after treatment
Description: as §1, §2, §3, §4, §5, §6

Stellaria media [10] = assay: Herbicidal activity, postemergence test; settings: post; sprayed onto seedling plants, 800 g of active material per hectare; evaluated 2 weeks after treatment
Description: as §1, §2, §3, §4, §5, §6

Lamium purpureum [11] = assay: Herbicidal activity, postemergence test; settings: post; sprayed onto seedling plants, 800 g of active material per hectare; evaluated 2 weeks after treatment
Description: as §1, §2, §3, §4, §5, §6

Chenopodium album [12] = assay: Herbicidal activity, postemergence test; settings: post; sprayed onto seedling plants, 800 g of active material per hectare; evaluated 2 weeks after treatment
Description: as §1, §2, §3, §4, §5, §6

Amaranthus retroflexus [13] = assay: Herbicidal activity, postemergence test; settings: post; sprayed onto seedling plants, 800 g of active material per hectare; evaluated 2 weeks after treatment
Description: as §1, §2, §3, §4, §5, §6

Zea mays [14] = assay: Herbicidal activity, postemergence test; settings: post; sprayed onto seedling plants, 800 g of active material per hectare; evaluated 2 weeks after treatment
Description: as §1, §2, §3, §4, §5, §6

Papaver rhoeas [15] = assay: Herbicidal activity, postemergence test; settings: post; sprayed onto seedling plants, 800 g of active material per hectare; evaluated 2 weeks after treatment
Description: as §1, §2, §3, §4, §5, §6

Galium aparine [16] = assay: Herbicidal activity, postemergence test; settings: post; sprayed onto seedling plants, 800 g of active material per hectare; evaluated 2 weeks after treatment
Description: as §1, §2, §3, §4, §5, §6

Gossypium hirsutum [17] = assay: Herbicidal activity, postemergence test; settings: post; sprayed onto seedling plants, 800 g of active material per hectare; evaluated 2 weeks after treatment
Description: as §1, §2, §3, §4, §5, §6

Matricaria inodora [18] = assay: Herbicidal activity, postemergence test; settings: post; sprayed onto seedling plants, 800 g of active material per hectare; evaluated 2 weeks after treatment
Description: as §1, §2, §3, §4, §5, §6

Triticum aestivum [19] = assay: Herbicidal activity, preemergence test; settings: pre; sprayed onto soil, 800 g of active material per hectare; evaluated 3 weeks after treatment
Description: as §1, §2, §3, §4, §5, §6

Abutilon theophrasti [20] = assay: Herbicidal activity, preemergence test; settings: pre; sprayed onto soil, 800 g of active material per hectare; evaluated 3 weeks after treatment
Description: as §1, §2, §3, §4, §5, §6

Glycine max [21] = assay: Herbicidal activity, preemergence test; settings: pre; sprayed onto soil, 800 g of active material per hectare; evaluated 3 weeks after treatment
Description: as §1, §2, §3, §4, §5, §6

Alopecurus myosuroides [22] = assay: Herbicidal activity, preemergence test; settings: pre; sprayed onto soil, 800 g of active material per hectare; evaluated 3 weeks after treatment
Description: as §1, §2, §3, §4, §5, §6

Setaria viridis [23] = assay: Herbicidal activity, preemergence test; settings: pre; sprayed onto soil, 800 g of active material per hectare; evaluated 3 weeks after treatment
Description: as §1, §2, §3, §4, §5, §6

Ambrosia artemisifolia [24] = assay: Herbicidal activity, preemergence test; settings: pre; sprayed onto soil, 800 g of active material per hectare; evaluated 3 weeks after treatment
Description: as §1, §2, §3, §4, §5, §6

Veronica persica [25] = assay: Herbicidal activity, preemergence test; settings: pre; sprayed onto soil, 800 g of active material per hectare; evaluated 3 weeks after treatment
Description: as §1, §2, §3, §4, §5, §6

Hordeum vulgare [26] = assay: Herbicidal activity, preemergence test; settings: pre; sprayed onto soil, 800 g of active material per hectare; evaluated 3 weeks after treatment
Description: as §1, §2, §3, §4, §5, §6

Ipomoea hederacea [27] = assay: Herbicidal activity, preemergence test; settings: pre; sprayed onto soil, 800 g of active material per hectare; evaluated 3 weeks after treatment
Description: as §1, §2, §3, §4, §5, §6

Stellaria media [28] = assay: Herbicidal activity, preemergence test; settings: pre; sprayed onto soil, 800 g of active material per hectare; evaluated 3 weeks after treatment
Description: as §1, §2, §3, §4, §5, §6

Lamium purpureum [29] = assay: Herbicidal activity, preemergence test; settings: pre; sprayed onto soil, 800 g of active material per hectare; evaluated 3 weeks after treatment
Description: as §1, §2, §3, §4, §5, §6

Chenopodium album [30] = assay: Herbicidal activity, preemergence test; settings: pre; sprayed onto soil, 800 g of active material per hectare; evaluated 3 weeks after treatment
Description: as §1, §2, §3, §4, §5, §6

Amaranthus retroflexus [31] = assay: Herbicidal activity, preemergence test; settings: pre; sprayed onto soil, 800 g of active material per hectare; evaluated 3 weeks after treatment
Description: as §1, §2, §3, §4, §5, §6

Zea mays [32] = assay: Herbicidal activity, preemergence test; settings: pre; sprayed onto soil, 800 g of active material per hectare; evaluated 3 weeks after treatment
Description: as §1, §2, §3, §4, §5, §6

Papaver rhoeas [33] = assay: Herbicidal activity, preemergence test; settings: pre; sprayed onto soil, 800 g of active material per hectare; evaluated 3 weeks after treatment
Description: as §1, §2, §3, §4, §5, §6

Galium aparine [34] = assay: Herbicidal activity, preemergence test; settings: pre; sprayed onto soil, 800 g of active material per hectare; evaluated 3 weeks after treatment
Description: as §1, §2, §3, §4, §5, §6

Gossypium hirsutum [35] = assay: Herbicidal activity, preemergence test; settings: pre; sprayed onto soil, 800 g of active material per hectare; evaluated 3 weeks after treatment
Description: as §1, §2, §3, §4, §5, §6

Matricaria inodora [36] = assay: Herbicidal activity, preemergence test; settings: pre; sprayed onto soil, 800 g of active material per hectare; evaluated 3 weeks after treatment
Description: as §1, §2, §3, §4, §5, §6

SMILES	TRZAW control rating (0-9) (Triticum aestivum [1])	ABUTH control rating (0-9) (Abutilon theophrasti [2])	GLXMA control rating (0-9) (Glycine max [3])	ALOMY control rating (0-9) (Alopecurus myosuroides [4])	SETVI control rating (0-9) (Setaria viridis [5])	AMBEL control rating (0-9) (Ambrosia artemisifolia [6])	VERPE control rating (0-9) (Veronica persica [7])	HORVW control rating (0-9) (Hordeum vulgare [8])	IPOHE control rating (0-9) (Ipomoea hederacea [9])	STEME control rating (0-9) (Stellaria media [10])	LAMPU control rating (0-9) (Lamium purpureum [11])	CHEAL control rating (0-9) (Chenopodium album [12])	AMARE control rating (0-9) (Amaranthus retroflexus [13])	ZEAMX control rating (0-9) (Zea mays [14])	PAPRH control rating (0-9) (Papaver rhoeas [15])	GALAP control rating (0-9) (Galium aparine [16])	GOSHI control rating (0-9) (Gossypium hirsutum [17])	MATIN control rating (0-9) (Matricaria inodora [18])	TRZAW control rating (0-9) (Triticum aestivum [19])	ABUTH control rating (0-9) (Abutilon theophrasti [20])	also measured
C[C@H](NC(=O)c1nnc(C=Cc2ccccc2)o1)c1ccccc1 [Example 17]	0 (no effect)	1 (trace effect)	0 (no effect)	0 (no effect)	0 (no effect)	0 (no effect)	3 (moderate effect)	0 (no effect)	1 (trace effect)	0 (no effect)	6 (herbicidal effect)	5 (definite injury)	4 (injury)	1 (trace effect)	5 (definite injury)	2 (slight effect)	3 (moderate effect)	0 (no effect)	0 (no effect)	0 (no effect)	GLXMA control rating (0-9) (Glycine max [21]): 0 (no effect); ALOMY control rating (0-9) (Alopecurus myosuroides [22]): 0 (no effect); SETVI control rating (0-9) (Setaria viridis [23]): 0 (no effect); AMBEL control rating (0-9) (Ambrosia artemisifolia [24]): 0 (no effect); VERPE control rating (0-9) (Veronica persica [25]): 3 (moderate effect); HORVW control rating (0-9) (Hordeum vulgare [26]): 0 (no effect); IPOHE control rating (0-9) (Ipomoea hederacea [27]): 0 (no effect); STEME control rating (0-9) (Stellaria media [28]): 0 (no effect); LAMPU control rating (0-9) (Lamium purpureum [29]): 0 (no effect); CHEAL control rating (0-9) (Chenopodium album [30]): 0 (no effect); AMARE control rating (0-9) (Amaranthus retroflexus [31]): 0 (no effect); ZEAMX control rating (0-9) (Zea mays [32]): 0 (no effect); PAPRH control rating (0-9) (Papaver rhoeas [33]): 5 (definite injury); GALAP control rating (0-9) (Galium aparine [34]): 0 (no effect); GOSHI control rating (0-9) (Gossypium hirsutum [35]): 9 (complete kill); MATIN control rating (0-9) (Matricaria inodora [36]): 0 (no effect)
COc1ccc(-c2nnc(C(=O)N[C@@H](C)c3ccccc3)o2)cc1 [Example 19]	2 (slight effect)	9 (complete kill)	4 (injury)	3 (moderate effect)	9 (complete kill)	7 (good herbicidal effect)	9 (complete kill)	3 (moderate effect)	6 (herbicidal effect)	8 (approaching complete kill)	8 (approaching complete kill)	8 (approaching complete kill)	8 (approaching complete kill)	3 (moderate effect)	7 (good herbicidal effect)	5 (definite injury)	9 (complete kill)	6 (herbicidal effect)	0 (no effect)	1 (trace effect)	GLXMA control rating (0-9) (Glycine max [21]): 0 (no effect); ALOMY control rating (0-9) (Alopecurus myosuroides [22]): 0 (no effect); SETVI control rating (0-9) (Setaria viridis [23]): 7 (good herbicidal effect); AMBEL control rating (0-9) (Ambrosia artemisifolia [24]): 0 (no effect); VERPE control rating (0-9) (Veronica persica [25]): 9 (complete kill); HORVW control rating (0-9) (Hordeum vulgare [26]): 0 (no effect); IPOHE control rating (0-9) (Ipomoea hederacea [27]): 0 (no effect); STEME control rating (0-9) (Stellaria media [28]): 6 (herbicidal effect); LAMPU control rating (0-9) (Lamium purpureum [29]): 8 (approaching complete kill); CHEAL control rating (0-9) (Chenopodium album [30]): 9 (complete kill); AMARE control rating (0-9) (Amaranthus retroflexus [31]): 9 (complete kill); ZEAMX control rating (0-9) (Zea mays [32]): 0 (no effect); PAPRH control rating (0-9) (Papaver rhoeas [33]): 9 (complete kill); GALAP control rating (0-9) (Galium aparine [34]): 0 (no effect); GOSHI control rating (0-9) (Gossypium hirsutum [35]): 0 (no effect); MATIN control rating (0-9) (Matricaria inodora [36]): 7 (good herbicidal effect)
